These results are taken from ChEMBL document CHEMBL5579854, “Targeting Relevant HDACs to Support the Survival of Cone Photoreceptors in Inherited Retinal Diseases: Identification of a Potent Pharmacological Tool with In Vitro and In Vivo Efficacy” (J Med Chem, 2024).

In brackets after ≈: the same amount, converted by molar mass. Activity calls are given as the source filed them. No cut-off for these calls is given here.

Data set [1] is described as follows: Inhibition of CYP in mouse liver microsomes using ECOD at 1 to 50 uM measured upto 30 mins by fluorescence based assay. It is filed as ADME, Microsome. The note with it: 0.5 h, dose 1-50 µM. A general note: Microsomes from liver hold many membrane-bound enzymes, among them those of drug oxidation.
Data set [2] is described as follows: Metabolic stability in human liver microsomes assessed as compound recovery at 10 uM incubated for 60 mins in presence of NADPH by HPLC analysis. The format is ADME, Microsome. The note with it: read-out: Stability.
A short description of data set [3]: Metabolic stability in mouse liver microsomes assessed as compound recovery at 10 uM incubated for 60 mins in presence of NADPH by HPLC analysis. It is filed as ADME, Microsome. The note with it: read-out: Stability.
Data set [4] has as its system Mus musculus. Put plainly: Upregulation of Nr3c1 mRNA level in eyes of C57BL/6J mouse model harboring rd10 mutant at 5 to 30 uM, IVT administered bilaterally measured after 5 days by RT-PCR analysis. The following applies: Eye, dose 5-30 µM, time 5.0 day. It is filed as functional, tissue-based.
The test system of data set [5] is Cone cell. Put plainly: Rescue of cone cell morphology in eyes of C57BL/6J mouse model harboring rd10 mutant at 30 uM, IVT administered bilaterally measured after 5 days by IHC analysis. It is filed as functional, tissue-based. The note with it: Eye, time 5.0 day.
A short description of data set [6]: Toxicity in zebrafish larval dye model harboring atp6v0e1/ucd6 assessed as maximum tolerated dose treated for 2 days. More on the design: species or system Danio rerio. The note with it: in vivo, 48 h, time 2 day.
A short description of data set [7]: Toxicity in Langendorff-perfused Wistar rat heart assessed as effect on chronotropic activity at 0.1 to 30 uM. It is filed as tissue-based. The note with it: dose 0.1-30 µM.
Data set [8] relates to Mus musculus. Put plainly: Upregulation of ARR3 mRNA level in eyes of C57BL/6J mouse model harboring rd10 mutant at 5 to 30 uM, IVT administered bilaterally measured after 5 days by RT-PCR analysis. The following applies: Eye, dose 5-30 µM, time 5.0 day. It is filed as functional, tissue-based.
Data set [9] can be described thus: Toxicity in zebrafish larval dye model harboring atp6v0e1/ucd6 assessed as morphological change in eye at 80 to 100 uM treated for 2 days by toluidine blue staining based analysis. The following applies: in vivo, 48 h, dose 80-100 µM, time 2 day. It is filed as tissue-based, Danio rerio.
Data set [10] in a line: Solubility of compound. It is filed as physicochemical.
Data set [11] relates to Mus musculus. Put plainly: Inhibition of discontinuities in tight junction pattern in eyes of C57BL/6J mouse model harboring rd10 mutant at 30 uM, IVT administered bilaterally measured after 5 days by ZO-1 staining based analysis. The format is functional, tissue-based. The note with it: Eye, time 5.0 day.
Data set [12] is described as follows: Toxicity in zebrafish larval dye model harboring atp6v0e1/ucd6 assessed as visual impairment at 20 to 100 uM treated for 2 days. Also noted: species or system Danio rerio. The note with it: in vivo, 48 h, dose 20-100 µM, time 2 day.
The nature of data set [13]: Induction of cone cell survival rate in eyes of C57BL/6J mouse model harboring rd10 mutant at 5 uM, IVT administered bilaterally measured after 5 days by fluorescence microscopy relative to control. The format is functional, Eye. The following applies: time 5 day.
A short description of data set [14]: Stability of compound at pH 7.4 measured after 24 hrs. The format is physicochemical. The note with it: buffer, read-out: Stability.
The test system of data set [15] is 661W. Put plainly: Cytoprotective effect against H2O2-induced oxidative stress in mouse 661W cells assessed as increase in acetylated alpha-tubulin level at 10 to 30 uM incubated for 24 hrs followed by H2O2 treatment for 3 hrs by immunofluorescence analysis. The following applies: dose 10-30 µM, time 27.0 hrs. It is filed as functional, cell-based.

By solubility is commonly meant how much of the substance goes into solution per volume.

With `O=C(NO)c1ccc(CNC(=O)N2CCc3c(c4ccccc4n3Cc3ccccc3)C2)cc1`, the “inhibition (INH)” value in data set [1] is listed as “Not Active”. The values for the remaining at 1 h, 10 µM in data set [2] and in data set [3] were 84% and 87%, respectively. In addition, the result in data set [4], in [5], in [8] and in data set [15] was Active. In addition, in [6], the MTD is 100 µM. The Activity result in data set [7] is “Non-Toxic”; in [9], “Non-Toxic”; in [12], “Non-Toxic”; in data set [13], 4%. The compound also gave a solubility in [10] of 309 µM (≈ 140 µg/mL). The inhibition result in [11] was “Active”. The remaining at 24 h in data set [14] is more than 99%.
